Laboratory results from publication PMC6271077, “Synthesis, Anticancer and Antibacterial Activity of Salinomycin N-Benzyl Amides” (Molecules, 2014).
In brackets after ≈: the same amount, converted by molar mass. Where two headings read alike, the source gives them in different places.

Legend:
Assay type in all cases: cell-based
MRSA 522/12 = assay: MIC microdilution, hospital MRSA; conditions: Staphylococcus aureus
MRSA 452/11 = assay: MIC microdilution, hospital MRSA; conditions: Staphylococcus aureus
MRSA 514/11 = assay: MIC microdilution, hospital MRSA; conditions: Staphylococcus aureus
MRSA 456/11 = assay: MIC microdilution, hospital MRSA; conditions: Staphylococcus aureus
MRSA 586/12 = assay: MIC microdilution, hospital MRSA; conditions: Staphylococcus aureus
MRSE 470/11 = assay: MIC microdilution, hospital MRSE; conditions: Staphylococcus epidermidis
MRSA 462/11 = assay: MIC microdilution, hospital MRSA; conditions: Staphylococcus aureus
S. aureus ATCC 25923 = assay: Disc-diffusion (GIZ); conditions: 18 h, 35 °C, un: unmeasurable
Description: (§1) Microorganisms used in this study were as follows: Gram-positive cocci: S. aureus NCTC 4163, S. aureus ATCC 25923, S. aureus ATCC 6538, S. aureus ATCC 29213, S. epidermidis ATCC 12228, S. epidermidis ATCC 35984, Gram-negative rods: E. coli ATCC 10538, E. coli ATCC 25922, E. coli NCTC 8196, P. vulgaris NCTC 4635, P. aeruginosa ATCC 15442, P. aeruginosa NCTC 6749, P. aeruginosa ATCC 27863, B. bronchiseptica ATCC 4617 and yeasts: C. albicans ATCC 10231, C. albicans ATCC 90028, C. parapsilosis ATCC 22019. The other microorganisms used were obtained from the collection of the Department of Pharmaceutical Microbiology, Medical University of Warsaw, Poland.
(§2) Antibacterial activity was examined by the disc-diffusion method under standard conditions using Mueller-Hinton II agar medium (Becton Dickinson, Heidelberg, Germany) according to CLSI (previously NCCLS) guidelines. Antifungal activities were assessed using Muellere Hinton agar + 2% glucose and 0.5 mg/mL Methylene Blue Dye Medium.
(§3) Sterile filter paper discs (9 mm diameter, Whatman No. 3 chromatography paper) were dripped with tested compound solutions (in EtOH) to load […] of a given compound per disc. Dry discs were placed on the surface of appropriate agar medium. The results (diameter of the growth inhibition zone, GIZ) were read after 18 h of incubation at 35 °C.

S. aureus ATCC 29213 [1] = assay: Disc-diffusion (GIZ); conditions: 18 h, 35 °C, un: unmeasurable
Description: as §1, §2, §3

[2] = tested on: S. epidermidis ATCC 12228; assay: Disc-diffusion (GIZ); conditions: 18 h, 35 °C, un: unmeasurable
Description: as §1, §2, §3

S. aureus ATCC 4163 [3] = assay: Disc-diffusion (GIZ); conditions: 18 h, 35 °C, un: unmeasurable
Description: as §1, §2, §3

S. aureus ATCC 6538 [4] = assay: Disc-diffusion (GIZ); conditions: 18 h, 35 °C, un: unmeasurable
Description: as §1, §2, §3

[5] = tested on: S. epidermidis ATCC 35984; assay: Disc-diffusion (GIZ); conditions: 18 h, 35 °C, un: unmeasurable
Description: as §1, §2, §3

[6] = tested on: S. epidermidis ATCC 35984; assay: MIC microdilution; conditions: Staphylococcus epidermidis
MRSE 469/11 = assay: MIC microdilution, hospital MRSE; conditions: Staphylococcus epidermidis
S. aureus ATCC 4163 [7] = assay: MIC microdilution; conditions: Staphylococcus aureus
S. aureus ATCC 6538 [8] = assay: MIC microdilution; conditions: Staphylococcus aureus
MRSE 488/11 = assay: MIC microdilution, hospital MRSE; conditions: Staphylococcus epidermidis
[9] = tested on: standard and "wild" strains of M. tuberculosis; assay: Tuberculostatic activity, all M. tuberculosis strains (overall); conditions: Mycobacterium tuberculosis, H37RV, read-out: MIC (over M. tuberculosis strains)
S. aureus ATCC 29213 [10] = assay: MIC microdilution; conditions: Staphylococcus aureus
MRSE 467/11 = assay: MIC microdilution, hospital MRSE; conditions: Staphylococcus epidermidis
MRSE 489/11 = assay: MIC microdilution, hospital MRSE; conditions: Staphylococcus epidermidis
MRSE 460/11 = assay: MIC microdilution, hospital MRSE; conditions: Staphylococcus epidermidis
MRSA 572/12 = assay: MIC microdilution, hospital MRSA; conditions: Staphylococcus aureus
[11] = hospital MRSA strain 522/12, read-out: MIC
[12] = hospital MRSA strain 452/11, read-out: MIC
[13] = hospital MRSA strain 514/11, read-out: MIC
[14] = hospital MRSA strain 456/11, read-out: MIC
[15] = hospital MRSA strain 586/12, read-out: MIC
[16] = hospital MRSE strain 470/11, read-out: MIC
[17] = hospital MRSA strain 462/11, read-out: MIC
[18] = ATCC35984, S. epidermidis ATCC 35984, 18 h, 35 °C, read-out: MIC
[19] = hospital MRSE strain 469/11, read-out: MIC
[20] = ATCC4163, S. aureus ATCC 4163, 18 h, 35 °C, read-out: MIC
[21] = ATCC6538, S. aureus ATCC 6538, 18 h, 35 °C, read-out: MIC
[22] = hospital MRSE strain 488/11, read-out: MIC
[23] = ATCC29213, S. aureus ATCC 29213, 18 h, 35 °C, read-out: MIC
[24] = hospital MRSE strain 467/11, read-out: MIC
[25] = hospital MRSE strain 489/11, read-out: MIC
[26] = hospital MRSE strain 460/11, read-out: MIC
[27] = hospital MRSA strain 572/12, read-out: MIC

| SMILES | MIC (MRSA 522/12; [11]) [µg/mL] | MIC (MRSA 452/11; [12]) [µg/mL] | MIC (MRSA 514/11; [13]) [µg/mL] | MIC (MRSA 456/11; [14]) [µg/mL] | MIC (MRSA 586/12; [15]) [µg/mL] | MIC (MRSE 470/11; [16]) [µg/mL] | MIC (MRSA 462/11; [17]) [µg/mL] | GIZ (S. aureus ATCC 25923) | GIZ (S. aureus ATCC 29213 [1]) | GIZ [2] | GIZ (S. aureus ATCC 4163 [3]) | GIZ (S. aureus ATCC 6538 [4]) | GIZ [5] | MIC [6, 18] [µg/mL] | MIC (MRSE 469/11; [19]) [µg/mL] | MIC (S. aureus ATCC 4163 [7]; [20]) [µg/mL] | MIC (S. aureus ATCC 6538 [8]; [21]) [µg/mL] | MIC (MRSE 488/11; [22]) [µg/mL] | MIC [9] [µg/mL] | MIC (S. aureus ATCC 29213 [10]; [23]) [µg/mL] | further results |
| --- | --- | --- | --- | --- | --- | --- | --- | --- | --- | --- | --- | --- | --- | --- | --- | --- | --- | --- | --- | --- | --- |
| CC[C@H](C(=O)NCc1ccc(F)cc1)C1CC[C@H](C)C([C@@H](C)[C@H](O)[C@H](C)C(=O)[C@H](CC)C2O[C@]3(C=C[C@@H](O)C4(CC[C@@](C)(C5CC[C@](O)(CC)[C@H](C)O5)O4)O3)[C@H](C)C[C@@H]2C)O1 (stereo partly drawn) [F-p] | 32 (≈ 37.3 µM) | 16 (≈ 18.6 µM) | 32 (≈ 37.3 µM) | 16 (≈ 18.6 µM) | 64 (≈ 74.6 µM) | 32 (≈ 37.3 µM) | 32 (≈ 37.3 µM) | 19 mm | 20 mm | 20 mm | 18 mm | 19 mm | 18 mm | 32 (≈ 37.3 µM) | 64 (≈ 74.6 µM) | 32 (≈ 37.3 µM) | 16 (≈ 18.6 µM) | 128 (≈ 149 µM) | 50 (≈ 58.3 µM) | 32 (≈ 37.3 µM) | MIC (MRSE 467/11; [24]): 64 µg/mL (≈ 74.6 µM); MIC (MRSE 489/11; [25]): 32 µg/mL (≈ 37.3 µM); MIC (MRSE 460/11; [26]): 32 µg/mL (≈ 37.3 µM); MIC (MRSA 572/12; [27]): 32 µg/mL (≈ 37.3 µM) |
| CC[C@H](C(=O)NCc1ccc([N+](=O)[O-])cc1)C1CC[C@H](C)C([C@@H](C)[C@H](O)[C@H](C)C(=O)[C@H](CC)C2O[C@]3(C=C[C@@H](O)C4(CC[C@@](C)(C5CC[C@](O)(CC)[C@H](C)O5)O4)O3)[C@H](C)C[C@@H]2C)O1 (stereo partly drawn) [NO2-p] | 128 (≈ 145 µM) | 128 (≈ 145 µM) | 128 (≈ 145 µM) | 128 (≈ 145 µM) | 256 (≈ 289 µM) | 256 (≈ 289 µM) | 128 (≈ 145 µM) | un | un | un | un | un | un | 128 (≈ 145 µM) | 256 (≈ 289 µM) | 128 (≈ 145 µM) | 128 (≈ 145 µM) | 256 (≈ 289 µM) | 50 (≈ 56.5 µM) | 128 (≈ 145 µM) | MIC (MRSE 467/11; [24]): 128 µg/mL (≈ 145 µM); MIC (MRSE 489/11; [25]): 256 µg/mL (≈ 289 µM); MIC (MRSE 460/11; [26]): 128 µg/mL (≈ 145 µM); MIC (MRSA 572/12; [27]): 128 µg/mL (≈ 145 µM) |
| CC[C@@H](C(=O)[C@@H](C)[C@@H](O)[C@H](C)[C@@H]1O[C@@H]([C@@H](CC)C(=O)O)CC[C@@H]1C)[C@H]1O[C@]2(C=C[C@@H](O)[C@]3(CC[C@@](C)([C@H]4CC[C@](O)(CC)[C@H](C)O4)O3)O2)[C@H](C)C[C@@H]1C [SAL, Salinomycin] |  |  |  |  |  |  |  | 29 mm | 28 mm | 34 mm | 30 mm | 34 mm | 33 mm |  |  |  |  |  | 25 to 50 (≈ 33.3 to 66.6 µM) |  | MIC (MRSA 522/12; MRSA): 16 µg/mL (≈ 21.3 µM); MIC (MRSA 452/11; MRSA): 16 µg/mL (≈ 21.3 µM); MIC (MRSA 514/11; MRSA): 8 µg/mL (≈ 10.7 µM); MIC (MRSA 456/11; MRSA): 16 µg/mL (≈ 21.3 µM); MIC (MRSA 586/12; MRSA): 16 µg/mL (≈ 21.3 µM); MIC (MRSE 470/11; MRSE): 16 µg/mL (≈ 21.3 µM); MIC (MRSA 462/11; MRSA): 16 µg/mL (≈ 21.3 µM); MIC ([6]; ATCC35984, 18 h): 2 µg/mL (≈ 2.66 µM); MIC (MRSE 469/11; MRSE): 16 µg/mL (≈ 21.3 µM); MIC (S. aureus ATCC 4163 [7]; ATCC4163, 18 h): 2 µg/mL (≈ 2.66 µM); MIC (S. aureus ATCC 6538 [8]; ATCC6538, 18 h): 2 µg/mL (≈ 2.66 µM); MIC (MRSE 488/11; MRSE): 16 µg/mL (≈ 21.3 µM); MIC (S. aureus ATCC 29213 [10]; ATCC29213, 18 h): 4 µg/mL (≈ 5.33 µM); MIC (MRSE 467/11; MRSE): 16 µg/mL (≈ 21.3 µM); MIC (MRSE 489/11; MRSE): 16 µg/mL (≈ 21.3 µM); MIC (MRSE 460/11; MRSE): 16 µg/mL (≈ 21.3 µM); MIC (MRSA 572/12; MRSA): 16 µg/mL (≈ 21.3 µM) |
